Data published in US6054441A, “Oxypurine nucleosides and their congeners, and acyl derivatives thereof, for improvement of hematopoiesis” (priority 1995, dated 2000).

Assays:
[1] = system: hematopoietic recovery after cyclophosphamide; experiment: Hematopoietic recovery after cyclophosphamide (Example 48); format: in vivo, Balb/C mice
Experimental: Cyclophosphamide (CP) (275 mg/kg, i.p.) was administered to 36 Balb/C female mice weighing approximately 20 grams each. Twenty four hours later and each day thereafter for a total of 4 or 6 days, mice were given a 0.4 ml i.p. injection of either physiological saline (controls), palmitoyldeoxyinosine (2.5 μmoles/mouse), or palmitoylxanthosine (2.5 μmoles/mouse). On days 5 and 7 following CP administration 6 of the 12 animals in each of the 3 groups were bled and then sacrificed by cervical dislocation. Spleens were removed and weighed, and complete blood cell counts performed.

[2] = system: hematopoietic recovery after cyclophosphamide; experiment: Hematopoietic recovery after cyclophosphamide (Example 50); format: in vivo, Balb/C mice; conditions: 2 μmoles/mouse
Experimental: Cyclophosphamide (CP) (275 mg/kg, i.p.) was administered to 96 Balb/C female mice weighing approximately 20 grams each. Twenty-four hours later and each day thereafter mice were given a 0.4 ml i.p. injection of either Tween-80 (0.2%) (controls), palmitoyldeoxyguanosine (2 μmoles/mouse), palmitoyldeoxyinosine (2 μmoles/mouse), palmitoylacyclovir (2 μmoles/mouse), palmitoylarabinosylguanine (2 μmoles/mouse), palmitoylarabinosylhypoxanthine (2 μmoles/mouse), monopalmitoylguanosine 2',3'-acyclic dialcohol (2 μmoles/mouse), and palmitoyl-8-thioguanosine (2 μmoles/mouse). On days 5 and 7 following CP administration 6 animals in each of the 8 groups were bled and then sacrificed by cervical dislocation. Spleens were removed and weighed, and complete blood cell counts performed.

[3] = system: hematopoiesis in normal mice; experiment: Hematopoiesis in normal mice (Example 44); format: in vivo, Balb/C mice
Experimental: Normal, otherwise untreated, female Balb/C mice weighing approximately 20 grams each received a total of 4 or 9 0.4 ml intraperitoneal injections (one per day) of either Tween-80 (0.2%) (controls), palmitoylguanosine (2.5 μmoles/mouse/day), or palmitoyldeoxyinosine (2.5 μmoles/mouse/day). Twenty-four hours after the 4th or 9th treatment, groups of 5 or 6 animals from each of the 3 groups were bled and then sacrificed by cervical dislocation. Spleens were removed and weighed, and complete blood cell counts performed.

[4] = system: bone marrow cells; experiment: Proliferation of bone marrow cells in long-term culture (Example 68); format: cell-based, B6D2F1 mice; conditions: 10 micrograms per ml
Experimental: Bone marrow cells from the femurs of B6D2F1 mice were used to establish long-term marrow cultures. After four weeks, when the stromal layer was confluent, the culture was treated with microphenolic acid in order to remove all cells from the stroma. New normal bone marrow cells (1×10^5 /ml) from the same source were then used to "recharge" the stromal layer. Palmitoyldeoxyguanosine was added to half of the cultures at a concentration of 10 micrograms per ml. Cells were counted on days 1, 3, 5, and 7 following addition of palmitoyldeoxyguanosine. On days 4 and 7 cells from the culture were removed, washed, and replated in methylcellulose. The number of granulo-monocytic colonies was counted one week later.

[5] = system: blood cell counts after 5-fluorouracil; experiment: Pretreatment dose response, recovery after 5-fluorouracil (Example 65); format: in vivo, Balb/C mice
Experimental: Sixty female Balb/C mice weighing approximately 20 grams each were distributed into one of five treatment groups and treated once daily for three days by i.p. injection with 3',5'-O-N^2 -tripalmitoyl-2'-deoxyguanosine at a dose of either 1, 5, 10, 25, or 50 mg/kg/treatment in a Tween-DMSO vehicle (0.2% Tween-80 and 7.5% DMSO in physiological saline). Injection volume was 0.4 ml. An additional twelve animals (controls) received vehicle alone on those three days. On the fourth day all seventy-two animals received a single i.p. injection of 5-fluorouracil (5-FU) at a dose of 150 mg/kg. On days 7 and 10 following 5-FU administration six mice from each group were bled and then sacrificed by cervical dislocation. Six untreated mice were also bled and sacrificed to provide data on normal (basal) values. Spleens were removed and weighed, and complete blood cell counts performed.

[6] = system: FDCPmix cells; experiment: Proliferation of FDCPmix cells, MTT assay (Example 69); format: cell-based
Experimental: The FDCPmix cell line was used as a suitable in vitro model for predicting the effects of hematopoietic factors on pluripotential stem cells. These cells can be maintained in an-undifferentiated state in the presence of IL-3 or undergo multi-lineage development in the presence of specific hematopoietic growth factors.
This level of proliferation (100%) served as the control value. Inhibition of proliferation by test compounds was represented as a percent of control.
FDCPmix cells were plated at a density of 5×10^4 cells per well in 96-well plates (5×10^5 /ml) using IMDM medium plus 10% fetal bovine serum. […] Test compounds were added at a decreasing concentrations ranging from 10 micrograms/ml down to 1 nanogram/ml. The test compounds included: 3',5'-O-N^2 -tripalmitoyl-2'-deoxyguanosine, 3',5'-di-O-palmitoyl-2'-deoxyguanosine, 3',5'-O-N^2 -trioctanoyl-2'-deoxyguanosine, 3',5'-di-O-octanoyl-2'-deoxyguanosine, and 3',5'-O-N^2 -trioleyl-2'-deoxyguanosine.

[7] = system: blood cell counts after cyclophosphamide; experiment: Hematopoietic recovery after cyclophosphamide (Example 62); format: in vivo, Balb/C mice; conditions: for Spleen: 25 mg/kg TriPdG or molar equivalent
Experimental: Thirty-six female Balb/C mice weighing approximately 20 grams each received a 0.4 ml i.p. injection of either 3',5'-O-N^2 -tripalmitoyl-2'-deoxyguanosine (triPdG) at a dose of 25 mg/kg/treatment or 3',5'-O-dipalmitoyl-2'-deoxyguanosine (diPdG) at a dose that was the molar equivalent of 25 mg/kg tripalmitoylgdeoxyguanosine, in a Tween-DMSO vehicle (0.2% Tween-80 and 7.5% DMSO in saline) or vehicle alone one time daily for five days following a single injection of cyclophosphamide (CP) (250 mg/kg, i.p.). On days 5 and 7 following CP administration six animals from each of these three groups were bled and then sacrificed by cervical dislocation. Six untreated mice were also bled and sacrificed to provide data on normal. (basal) values. Spleens were removed and weighed, and complete blood cell counts performed.

[8] = system: blood cell counts after cyclophosphamide; experiment: Hematopoietic recovery after cyclophosphamide (Example 63); format: in vivo, Balb-C mice; conditions: for Spleen: 25 mg/kg TriPdG or molar equivalent
Experimental: Fifty-eight female Balb-C mice weighing approximately 20 grams each received a single injection of cyclophosphamide (250 mg/kg, i.p.), and were then distributed into a vehicle control group (0.2% Tween-80+7.5% DMSO in saline; n=12) or one of five treatment groups:
Vehicle or treatment agents were administered to mice once daily for five days at a volume of 0.4 ml by i.p. injection. TriPdG was given at a dose of 25 mg/kg/treatment. The other four agents were given in doses that are the molar equivalent of 25 mg/kg/treatment of TriPdG. On days 5 and 7 following CP administration half of the animals from each of the six groups were bled and then sacrificed by cervical dislocation. Five untreated mice were also bled and sacrificed to provide data on normal (basal) values. Spleens were removed and weighed, and complete blood cell counts performed.

[9] = system: human myeloid leukemia cell line (HL-60); conditions: cited from earlier work; for conversion of immature blast cells into mature granulocytes: HL-60 in vitro
[10] = system: hematopoiesis in normal mice; experiment: Hematopoiesis in normal mice (Example 56); format: in vivo, Balb/C mice; conditions: day 5, 2.6 μmoles/mouse, 4 days
Experimental: Normal Balb/C female mice weighing approximately 20 grams each were given a daily 0.4 ml i.p. injection of either physiological saline (controls), palmitoylguanosine (2.6 μmoles/mouse), palmitoyldeoxyguanosine (2.6 μmoles/mouse), monopalmitoylguanosine 2',3'-acyclic dialcohol (2.6 μmoles/mouse), and palmitoyl-8-bromoguanosine (2.6 μmoles/mouse) for 4 days. On the fifth day all 3 animals in each of the 5 groups were bled and then sacrificed by cervical dislocation. Spleens were removed and weighed, and complete blood cell counts performed. Femoral bone marrow from each mouse was collected and a differential cell count performed on marrow smears.

[11] = 48 h, read-out: Cell proliferation

Molecule: CCCCCCCCCCCCCCCC(=O)OC[C@H]1O[C@@H](n2cnc3c(=O)[nH]cnc32)C[C@@H]1O
- spleen weight ([1]; day 5, 2.5 μmoles/mouse, vs controls): significantly elevated
- neutrophil counts ([1]; day 5, vs controls): significantly elevated
- total leukocyte counts ([1]; day 5, vs controls): significantly elevated
- neutrophil counts ([1]; day 5, vs palmitoylxanthosine): significantly elevated
- total leukocyte counts ([1]; day 5, vs palmitoylxanthosine): significantly elevated
- Neutrophils ([1]; day 7, vs controls): significantly increased
- spleen weight ([1]; day 7, vs controls): significantly increased
- total leukocytes ([1]; day 7, vs controls): significantly increased
- spleen weight ([2]; day 5): significantly elevated
- spleen weight ([3]; day 5, 2.5 μmoles/mouse/day i.p.): significantly greater
- neutrophil counts ([3]; day 10, vs Tween 80): significantly greater
- spleen weight ([3]; day 10, vs Tween 80): significantly greater
- total leukocyte counts ([3]; day 10, vs Tween 80): significantly greater

Molecule: CCCCCCCCCCCCCCCC(=O)OCCOCn1cnc2c(=O)[nH]c(N)nc21 [1-O-palmitoylacyclovir, palmitoylacyclovir]
- white blood cell count ([2]; day 5): significantly elevated compared to controls in all but one treatment group (1-O-palmitoylacyclovir)

Molecule: CCCCCCCCCCCCCCCC(=O)Nc1nc2c(ncn2[C@H]2C[C@H](OC(=O)CCCCCCCCCCCCCCC)[C@@H](COC(=O)CCCCCCCCCCCCCCC)O2)c(=O)[nH]1 [TriPdG, 3',5'-O-N^2-tripalmitoyl-2'-deoxyguanosine]
- Cells ([4]; day 1): 1.9 ± .13 10^6 /flask
- Cells ([4]; day 3): 2.9 ± .10 10^6 /flask
- granulocyte/macrophage colony-forming units ([4]; day 4): 5123 ± 561 CFU-GM/flask
- Cells ([4]; day 5): 7.7 ± .2 10^6 /flask
- Cells ([4]; day 7): 4.3 ± .15 10^6 /flask
- granulocyte/macrophage colony-forming units ([4]; day 7): 33903 ± 9457 CFU-GM/flask
- Platelets ([5]; 7 days after 5-FU, 1 mg/kg): 457 ± 36 K/μl
- Spleen ([5]; 7 days after 5-FU, 1 mg/kg): 74 ± 3 mg
- Platelets ([5]; 7 days after 5-FU, 5 mg/kg): 682 ± 66 K/μl
- Spleen ([5]; 7 days after 5-FU, 5 mg/kg): 78 ± 4 mg
- Platelets ([5]; 7 days after 5-FU, 10 mg/kg): 571 ± 41 K/μl
- Spleen ([5]; 7 days after 5-FU, 10 mg/kg): 83 ± 6 mg
- Platelets ([5]; 7 days after 5-FU, 25 mg/kg): 587 ± 19 K/μl
- Spleen ([5]; 7 days after 5-FU, 25 mg/kg): 93 ± 5 mg
- Platelets ([5]; 7 days after 5-FU, 50 mg/kg): 596 ± 43 K/μl
- Spleen ([5]; 7 days after 5-FU, 50 mg/kg): 102 ± 4 mg
- Lymphocytes ([5]; 10 days after 5-FU, 1 mg/kg): 5.7 ± .2 K/μl
- Neutrophils ([5]; 10 days after 5-FU, 1 mg/kg): 0.4 ± .2 K/μl
- Spleen ([5]; 10 days after 5-FU, 1 mg/kg): 96 ± 13 mg
- WBC ([5]; 10 days after 5-FU, 1 mg/kg): 6.2 ± .4 K/μl
- Lymphocytes ([5]; 10 days after 5-FU, 5 mg/kg): 6.3 ± .7 K/μl
- Neutrophils ([5]; 10 days after 5-FU, 5 mg/kg): 1.6 ± .4 K/μl
- Spleen ([5]; 10 days after 5-FU, 5 mg/kg): 157 ± 13 mg
- WBC ([5]; 10 days after 5-FU, 5 mg/kg): 8.2 ± .9 K/μl
- Lymphocytes ([5]; 10 days after 5-FU, 10 mg/kg): 5.7 ± .4 K/μl
- Neutrophils ([5]; 10 days after 5-FU, 10 mg/kg): 1.8 ± .4 K/μl
- Spleen ([5]; 10 days after 5-FU, 10 mg/kg): 169 ± 24 mg
- WBC ([5]; 10 days after 5-FU, 10 mg/kg): 7.7 ± .6 K/μl
- Lymphocytes ([5]; 10 days after 5-FU, 25 mg/kg): 8.3 ± .4 K/μl
- Neutrophils ([5]; 10 days after 5-FU, 25 mg/kg): 2.9 ± .4 K/μl
- Spleen ([5]; 10 days after 5-FU, 25 mg/kg): 293 ± 17 mg
- WBC ([5]; 10 days after 5-FU, 25 mg/kg): 11.4 ± .6 K/μl
- Lymphocytes ([5]; 10 days after 5-FU, 50 mg/kg): 8.3 ± 1.0 K/μl
- Neutrophils ([5]; 10 days after 5-FU, 50 mg/kg): 2.2 ± .5 K/μl
- Spleen ([5]; 10 days after 5-FU, 50 mg/kg): 320 ± 39 mg
- WBC ([5]; 10 days after 5-FU, 50 mg/kg): 10.8 ± 1.6 K/μl
- inhibition of proliferation ([6]; 10 micrograms/ml down): significant dose-dependent inhibitory effects at doses from 10 micrograms per ml down to 100 nanograms per ml
- activity at 0.01 µg/mL [6, 11]: 78 ± 1%
- activity at 0.039 µg/mL [6, 11]: 76 ± 2%
- activity at 0.156 µg/mL [6, 11]: 72 ± 3%
- activity at 0.625 µg/mL [6, 11]: 60 ± 2%
- activity at 2.5 µg/mL [6, 11]: 51 ± 0.7%
- activity at 10 µg/mL [6, 11]: 51 ± 0.6%
- Neutrophils ([7]; 5 days after CP): 2.5 ± .3 K/μl
- WBC ([7]; 5 days after CP): 4.1 ± .4 K/μl
- Spleen ([7]; 5 days after CP): 77 ± 7 mg
- Neutrophils ([7]; 7 days after CP): 9.9 ± .9 K/μl
- Platelets ([7]; 7 days after CP): 549 ± 25 K/μl
- WBC ([7]; 7 days after CP): 13.4 ± .4 K/μl
- Spleen ([7]; 7 days after CP): 156 ± 12 mg
- Neutrophils ([8]; 5 days after CP): 0.6 ± .1 K/μl
- Platelets ([8]; 5 days after CP): 330 ± 19 K/μl
- WBC ([8]; 5 days after CP): 3.6 ± .4 K/μl
- Spleen ([8]; 5 days after CP): 73 ± 3 mg
- Neutrophils ([8]; 7 days after CP): 7.3 ± .3 K/μl
- Platelets ([8]; 7 days after CP): 674 ± 37 K/μl
- WBC ([8]; 7 days after CP): 3.6 ± .4 K/μl
- Spleen ([8]; 7 days after CP): 198 ± 23 mg

Molecule: CN(C)C=O [dimethylformamide, reference compound]
- conversion of immature blast cells into mature granulocytes [9]: induced

Molecule: OC[C@H]1O[C@@H](n2cnc3c(O)ncnc32)[C@H](O)[C@@H]1O [inosine]
- effect on induced maturation of HL-60 cells ([9]; HL-60 with inducing agents): no effect on induced maturation

Molecule: CC1=C(/C=C/C(C)=C/C=C/C(C)=C/C(=O)O)C(C)(C)CCC1 [retinoic acid, reference compound]
- conversion of immature blast cells into mature granulocytes [9]: induced

Molecule: Palmitoylguanosine 2,3'-acyclic dialcohol
- platelet counts [10]: significantly elevated in the all of the treatment groups except palmitoylguanosine 2',3'-acyclic dialcohol
- spleen weight [10]: significantly elevated
- number of myelocytes ([10]; femoral bone marrow): significantly greater
- spleen weight ([2]; day 5): significantly elevated

Molecule: palmitoylarabinosylguanine
- spleen weight ([2]; day 7): significantly elevated on day 7 in all treatment groups except palmitoylarabinosylguanine

Molecule: palmitoylarabinosylhypoxanthine
- spleen weight ([2]; day 7): significantly elevated on day 7 in all treatment groups except palmitoylarabinosylguanine and palmitoylarabinosylhypoxanthine
